This assay relates to B. subtilis. As to the kind of experiment: Proteome analysis via 2D-PAGE with 35S-methionine labelling of newly synthesized proteins. The format is cell-based, Bacillus subtilis. The following applies: 3 μg/ml DS50, 0.15 μg/ml nocathiacin I, 8 μg/ml GE2270 A or 50 μg/ml kirromycin, 15 min. As to the method:
B. subtilis was grown to an OD500 of 0.35 in BMM and treated with 3 μg/ml DS50 or 12 μg/ml biotin-DS50 for 15 min or left untreated as control. The following concentrations were used for the reference antibiotics: 0.15 μg/ml nocathiacin I, 8 μg/ml GE2270 A or 50 μg/ml kirromycin. Radioactive labelling of newly synthesized proteins during antibiotic treatment with ^35S-methionine and 2D-PAGE analysis were essentially performed as described^38.
Protein spots were cut out of the gel and decolorized twice in a washing solution (20 mM ammonium bicarbonate, 30% acetonitrile). Disulfide bridges in proteins from gel pieces obtained from 1D-PAGE gels were reduced with 10 mM DTT in wash solution at 60° C. for 45 min. Cysteine alkylation was then performed with 50 mM iodoacetamide (IAA) in a washing solution for 25 min at room temperature in the dark. The gel pieces were washed twice with washing solution for 5 min at room temperature. The reduction and alkylation steps were omitted for samples from 2D-PAGE experiments. […] Gradient for identification of proteins from 1D-PAGE: initial, 0.5% eluant B (0.1% formic acid (FA) in acetonitrile); 1 min, 0.5% eluant B; 45 min, 60% eluant B; 48 min, 90% eluant B; 49 min, 99% eluant B; 51 min, 99% eluant B; 52 min, 0.5% eluant B; 60 min, 0.5% eluant B. 0.1% FA in water served as eluent A. Gradient for the identification of proteins from 2D-PAGE: initial, 0.5% eluent B; 22 min, 50% eluent B; 23 min, 99% eluent B; 26 min, 99% eluent B; 27 min, 0.5% eluent B; 30 min, 0.5% eluent B. Continuous MS^E spectra were recorded in a mass range of 50-1200 m/z and with a scanning time of […] in positive resolution mode with the following settings: Capillary voltage, 1.7 kV; cone voltage, 30 V; source temperature, 100° C.; cone gas flow, 50 l/h; desolvation gas flow, 500 l/h; desolvation temperature, 150° C. […] For protein identification, a database with 4180 proteins of B. subtilis was used (NCBI reference sequence: NC_000964.3, manually added: trypsin, keratin, quantification standard PhosB). […]

Turning to kirromycin, the “protein biosynthesis compared to control conditions” value is given as “not affected”.

As to `CNC(=O)C[C@@H]1NC(=O)c2csc(n2)-c2ccc(-c3nc(C4=N[C@H](C(=O)N5CCC[C@H]5C(N)=O)CO4)cs3)nc2-c2csc(n2)-c2csc(n2)[C@H]([C@@H](O)c2ccccc2)NC(=O)CNC(=O)c2nc(sc2COC)[C@H](C(C)C)NC(=O)c2nc1sc2C` [GE2270 A], the “protein biosynthesis compared to control conditions” value is −65%.

Consider `C=C(NC(=O)c1csc(-c2nc3c(cc2O)-c2nc(cs2)C(=O)N[C@@H]([C@@H](C)O)C(=O)N/C(=C(\C)OC)c2nc(cs2)C(=O)N[C@@H]2c4nc(cs4)C(=O)N[C@@H](COC(=O)c4c5c6c(cccc6n4O)COC(=O)[C@@H](O[C@H]4C[C@](C)(O)[C@H](N(C)C)[C@H](C)O4)[C@H]2OC5)c2nc-3cs2)n1)C(N)=O.O=C(O)C(F)(F)F` [nocathiacin I], for which the “protein biosynthesis compared to control conditions” value is recorded as −15%.

(Values after patent US11267831B2, “EF-Tu-binding metal-containing antibiotic” (Ruhr-Universitaet Bochum, priority 2017, dated 2022).)
